Patent publication US20230165970A1, “COMPOSITIONS AND METHODS FOR THE TREATMENT OF BACTERIAL INFECTIONS” (priority 2017, published 2023)
Values after ≈ are worked out from the molar mass of the structure shown. *1 amine or outer side, *2 acyl side, *3 side chain or, on linkers, in order; H or OH if unused. Where a SMILES comes first, the peptide text is derived from it. Bridges are numbered along the chain shown (N, C = ends). [ ]: non-standard residue; d: D form. The star is where a group is joined. Propargyl(OCH2CH2)4CO = C#CCOCCOCCOCCOCCC(=O)*; X1 = CCCCCC[C@@H](O)[C@H](N[*:1])C(=O)[*:2]; dCha = N[C@H](CC1CCCCC1)C(=O)O; Aoc(2) = CCCCCC[C@H](N)C(=O)O; Dab = NCC[C@H](N)C(=O)O; azaGly = NNC(=O)O

Key:
[1] = test system: Ab AB5075; assay type: cell-based, Acinetobacter baumannii
Protocol: (§1) Briefly, stock solutions of all antibacterial agents were prepared fresh in appropriate solvents (i.e. PBS, pH 7.4, DMSO, DI, etc.). Stock concentrations for drug conjugates were made at 12.5× the highest final assay concentration. All were serially diluted 2-fold, 8 or 12 times in a 96-well PCR plate (VWR cat. no. 83007-374). Bacterial cell suspensions generated from Mueller-Hinton agar (MHA) plate cultures were prepared in 0.85% saline and adjusted to ˜0.1 OD600 nm. […] For the conjugates, 92 μL of each cell suspension in RPMI B were added in the same 96-well plate assay format. […] Compounds were tested against a 14-strain panel comprised of E. coli (Ec), A. baumannii (Ab), P. aeruginosa (Pa), and K. pneumoniae (Kp) that were obtained from ATCC (Ec 25922, Ec 2489, Ab 19606, Pa 27853, Pa PAO1, Kp 43816, Kp 10031), Centers for Disease Control and Prevention (Ec AR0349), BEI Resources (Ab AB5075), Micromyx LLC (Ab 8990, Kp 6951), and Belgian Coordinated Collections of Microorganisms (Pa LES431) or generated in-house (Ec 25922 64X-1). […] E. coli strain ATCC 25922 and P. aeruginosa strain LES431 were run in the presence and absence of 50% heat-inactivated fetal bovine serum (FBS; Sigma, cat. no. F4135-100 mL). Plates were mixed by shaking then incubated at 35° C. overnight (16-20 h).

[2] = test system: Pa PAO1; assay type: cell-based, Pseudomonas aeruginosa; conditions: for MIC: PAO1
Protocol: as §1

[3] = test system: Pa LES431; assay type: cell-based, Pseudomonas aeruginosa
Protocol: as §1

[4] = test system: Pa 27853; assay type: cell-based, Pseudomonas aeruginosa
Protocol: as §1

[5] = test system: Ab 19606 (COLhet^R); assay type: cell-based, Acinetobacter baumannii; conditions: media CA-MHB
Protocol: (§2) Briefly, stock solutions of all antibacterial agents were prepared fresh in appropriate solvents (i.e. PBS, pH 7.4, DMSO, DI, etc.). Stock concentrations for drug conjugates were made at 12.5× the highest final assay concentration. All were serially diluted 2-fold, 8 or 12 times in a 96-well PCR plate (VWR cat. no. 83007-374). Bacterial cell suspensions generated from Mueller-Hinton agar (MHA) plate cultures were prepared in 0.85% saline and adjusted to ˜0.1 OD600 nm. Next, cell suspensions were diluted 1:200 in RPMI containing 5% Luria Broth (LB) to improve bacterial growth (BD Difco, cat. no. 244620) to a concentration of ˜5×10^5 CFU (colony-forming units)/mL. Due to poor solubility in Mueller-Hinton broth media, drug conjugates were evaluated in RPMI 1640 medium (+) L-glutamine, (+) sodium bicarbonate, pH 7.4 (“RPMI B”; Gibco, cat. no. 11875-085) as has been described as a more physiologically-relevant media for susceptibility testing of antibacterial compounds (1). For the conjugates, 92 μL of each cell suspension in RPMI B were added in the same 96-well plate assay format. […] Compounds were tested against a 14-strain panel comprised of E. coli (Ec), A. baumannii (Ab), P. aeruginosa (Pa), and K. pneumoniae (Kp) that were obtained from ATCC (Ec 25922, Ec 2489, Ab 19606, Pa 27853, Pa PAO1, Kp 43816, Kp 10031), Centers for Disease Control and Prevention (Ec AR0349), BEI Resources (Ab AB5075), Micromyx LLC (Ab 8990, Kp 6951), and Belgian Coordinated Collections of Microorganisms (Pa LES431) or generated in-house (Ec 25922 64X-1). […] E. coli strain ATCC 25922 and P. aeruginosa strain LES431 were run in the presence and absence of 50% heat-inactivated fetal bovine serum (FBS; Sigma, cat. no. F4135-100 mL). Plates were mixed by shaking then incubated at 35° C. overnight (16-20 h).

[6] = test system: Ec 25922; assay type: cell-based, Escherichia coli
Protocol: as §1

[7] = test system: Ec 2469; assay type: cell-based, Escherichia coli
Protocol: as §1

[8] = test system: E. coli 25922; conditions: 0.3 mg/kg IP qd at T+1 hour; 72 hours after bacterial challenge; N=3
Protocol: In vivo screening of selected compounds was accomplished in an E. coli bacteremia model (N=3). Efficacy was assessed in an animal model of infection using CD-1 mice by evaluating bacteremia in immune competent mice challenged with 2× the LD95 of E. coli 25922 (dosed qd, intraperitoneally (IP) at T+1 hour, survival endpoint).
Colistin (COL) and Int-17 were dosed at 0.3 mg/kg and Int-41 was dosed at 3.0 mg/kg. Percent survival was determined 72 hours after bacterial challenge. Compounds with MICs against E. coli 25922 of less than 4 μg/ml were evaluated in the bacteremia model.
Int-115 and Int-118 were evaluated for potency in a lethal model of bacteremia. […] Test articles were dissolved in 1× PBS and injected IV at a dose volume of 10 ml/kg one hour following bacterial challenge. Animals were monitored twice daily and mortality scored over three days.
CD-1 mice were used for bacteremia, C57BL/6J mice for endotoxemia. The endpoint was survival after three days for both models.

[9] = test system: Ec AR0349 (mcr-1, COL^R); assay type: cell-based, Escherichia coli; conditions: media CA-MHB
Protocol: as §2

[10] = test system: Ec 25922 64X-1 (COL^R); assay type: cell-based, Escherichia coli; conditions: media CA-MHB
Protocol: as §2

[11] = test system: Kp 43816; assay type: cell-based, Klebsiella pneumoniae
Protocol: as §1

[12] = test system: Kp 6951 (COL^R); assay type: cell-based, Klebsiella pneumoniae
Protocol: as §1

[13] = test system: Kp 10031; assay type: cell-based, Klebsiella pneumoniae
Protocol: as §1

[14] = test system: Ab 8990 (COL^R); assay type: cell-based, Acinetobacter baumannii; conditions: Ab 8990 (COL^R); media CA-MHB
Protocol: as §1

[15] = test system: Ab AB58705 (COL^R) IpxD, mut. (no LPS); assay type: cell-based, Acinetobacter baumannii; conditions: media CA-MHB
[16] = test system: A. baumannii AB5075; assay type: cell-based
Protocol: (§3) Overnight stationary-phase cultures were centrifuged at 3,500×g for 10 min at room temperature and resuspended in 1×PBS to an optical density at 600 nm (OD600) of 0.4 (1×10^8 colony forming units [CFU]/ml) in RPMI with L-glutamine and phenol red (Life Technologies). Bacteria were diluted 1:25 in RPMI ([…]) and 10 ul added to wells of a non-binding 96-well plate (Corning 3641) containing 80 ul of 50% hirudin anti-coagulated blood (complement active) in RPMI. […] MBC was defined as the minimum conjugate concentration required for bacterial clearance (Table 8A and Table 8B). An untreated growth control (40% blood, 0 ug/ml conjugate) was included in all assays as a growth comparator.
(§4) MBC was defined as the minimum compound concentration required for complete bacterial clearance (Table 18).
(§5) In most cases, 2-4 fold improvements in antibacterial activity for the conjugates are observed in the presence of complement active human blood.

[17] = test system: E. coli ATCC 25922; assay type: cell-based
Protocol: as §3, §4, §5

[18] = test system: P. aeruginosa PAO1; assay type: cell-based
Protocol: as §3, §4, §5

[19] = test system: Sa RN; assay type: cell-based

Row | SMILES | MIC [1] | MIC [2] | MIC [3] | MIC [4] | MIC [5] | MIC [6] | MIC [7] | MIC [9] | MIC [10] | MIC [11] | MIC [12] | MIC [13] | other results
1 | C#CCOCCOCCOCCOCCC(=O)N[C@@H](CCCCCC)C(=O)N[C@@H](CCN)C(=O)N[C@H](C(=O)N[C@@H](CCN)C(=O)N[C@H]1CCNC(=O)[C@H]([C@@H](C)O)NC(=O)[C@H](CCN)NC(=O)[C@H](CCN)NC(=O)[C@H](CC(C)C)NC(=O)[C@@H](Cc2ccccc2)NC(=O)[C@H](CCN)NC1=O)[C@@H](C)O [Int-17] ({Propargyl(OCH2CH2)4CO}-[Aoc(2)][Dab]T[Dab][Dab][Dab][dF]L[Dab][Dab]T; lactam 5-C) | 1 µg/mL (≈ 0.691 µM) | 4 µg/mL (≈ 2.76 µM) | 1 µg/mL (≈ 0.691 µM) | 2 µg/mL (≈ 1.38 µM) | 1 µg/mL (≈ 0.691 µM) | 2 µg/mL (≈ 1.38 µM) | 1 µg/mL (≈ 0.691 µM) | 16 µg/mL (≈ 11.1 µM) | 64 µg/mL (≈ 44.2 µM) | 1 µg/mL (≈ 0.691 µM) | >128 µg/mL | 1 µg/mL (≈ 0.691 µM) | MIC E. coli ATCC 25922, No serum [6]: 2 µg/mL (≈ 1.38 µM); MIC E. coli ATCC 25922, Serum [6]: 0.5 µg/mL (≈ 0.346 µM); % Survival (IP, QD) [8]: 100%
2 | C#CCOCCOCCOCCOCCC(=O)N[C@@H](CCN)C(=O)N[C@H](C(=O)NNC(=O)N[C@H]1CCNC(=O)[C@H]([C@@H](C)O)NC(=O)[C@H](CCN)NC(=O)[C@H](CCN)NC(=O)[C@H](CC(C)C)NC(=O)[C@@H](CC2CCCCC2)NC(=O)[C@H](CCN)NC1=O)[C@H](O)CCCCCC [Int-115] ({Propargyl(OCH2CH2)4CO}-[Dab][X1][azaGly][Dab][Dab][dCha]L[Dab][Dab]T; lactam 4-C) | 2 µg/mL (≈ 1.49 µM) | 8 µg/mL (≈ 5.97 µM) | 4 µg/mL (≈ 2.99 µM) | 4 µg/mL (≈ 2.99 µM) | 4 µg/mL (≈ 2.99 µM) | 2 µg/mL (≈ 1.49 µM) | 2 µg/mL (≈ 1.49 µM) | 16 µg/mL (≈ 11.9 µM) | 64 µg/mL (≈ 47.8 µM) | 2 µg/mL (≈ 1.49 µM) | 128 µg/mL (≈ 95.5 µM) | 2 µg/mL (≈ 1.49 µM) | MIC in RPMI AB 5075 ([1]; pH 7.4): 1.11 µg/mL (≈ 0.829 µM); MIC [14]: >128 µg/mL; MIC [15]: 64 µg/mL (≈ 47.8 µM); MBC in blood AB 5075 [16]: 0.05 µg/mL (≈ 0.0373 µM); MBC in blood EC 25922 [17]: 0.05 µg/mL (≈ 0.0373 µM); MBC in blood PA 01 [18]: >0.2 µg/mL; MIC in RPMI PA 01 ([2]; PAO1, pH 7.4): 8.91 µg/mL (≈ 6.65 µM); MIC in RPMI EC 25922 ([6]; pH 7.4): 2.23 µg/mL (≈ 1.66 µM); MIC [19]: >128 µg/mL
